Data from US12466821B2 (Novartis AG, priority 2018, dated 2025).

Key:
[1] = biological target: human HSV DNA polymerase UL30 (Human herpesvirus 1 (strain 17) (HHV-1) (Human herpes simplex virus 1), UniProt P04293); assay: HSV polymerase biochemical assay (molecular beacon-based)
Procedure: (§1) Both human CMV DNA polymerase UL54 and human HSV DNA polymerase UL30 were produced as N-terminal MBP fusion of the full length, wild type recombinant proteins in order to enhance soluble expression in insect cell expression system. The proteins were expressed in sf9 insect cells via baculovirus transduction and cells were harvested after 48 hours. The soluble proteins were purified using the standard Ni-IMAC purification strategy via the N-terminal hexa-Histidine tag, followed by heparin affinity chromatography. Both of the final MBP fusion proteins were more than 90% pure and the yield of UL54 was up to 1.8 mg per liter culture while UL30 was up to 15 mg per liter culture. All purification steps were performed on ice, with buffers chilled on ice and FPLC fraction collectors set at 6° C. […] UL30 protein was stored in buffer containing 20 mM HEPES, pH7.0, 420 mM NaCl, 20% glycerol, 6 mM Imidazole, and 0.8 mM DTT at−80° C.
(§2) DNA polymerase activity was measured using a molecular beacon-based assay, as described in Ma et. al.
(§3) 100 pM CMV polymerase or 625 pM HSV polymerase was added to a buffer containing 20 mM Tris, pH=7.5, 100 mM NaCl, 10 mM MgCl2, 0.01% Tween-20, 0.5 mM EDTA, 10% Sucrose and 1 mM DTT. The inhibitor was pre-incubated with the polymerase for 30 minutes at room temperature. Reactions were initiated by the addition of a mixture containing 1.25 uM dATP, 1.25 uM dCTP, 1.25 uM dTTP, 1.25 uM dGTP, 200 nM Primer B (5′-GAC GGG AAG-3′5′-GAC GGG AAG-3′) and 100 nM molecular beacon (5′-5,6-FAM-CCTCTCCGTGTCTTGTACTTCCCGTCAGAGAGG-BHQ1-3′). For human CMV polymerase the reactions were incubated for 60 minutes at room temperature. For HSV polymerase the reactions were incubated for 20 minutes at room temperature. The reactions were then read on a Perkin-Elmer EnVision 2101 reader (fluorescence) using an excitation of 480 nm and emission of 535 nm. 1050s were determined using an internal Novartis software (Helios).
as §3, with “nm.” for “nm. 1050s were determined using an internal Novartis software (Helios).”

[2] = biological target: human CMV DNA polymerase UL54 (Human cytomegalovirus (strain AD169) (HHV-5) (Human herpesvirus 5), UniProt P08546); assay: CMV polymerase biochemical assay (molecular beacon-based)
Procedure: as §1, §2, §3
as §3, with “nm.” for “nm. 1050s were determined using an internal Novartis software (Helios).”

[3] = system: Luciferase-encoding HCMV, AD169 strain; assay: CMV Luciferase assay (cellular herpesvirus replication); type: cell-based; settings: Human betaherpesvirus 5, AD169, read-out: CMV-Luc Cellular EC50
Procedure: For all viral assays, 10 mM DMSO stock compound solutions were serially diluted in DMSO at 3.16 fold dilutions in 96-well clear round bottom plates. Compounds were then diluted in assay media at 1:20 and subsequently 10 μL of these dilutions were added to cells for final compound concentrations ranging either from 0.0159 μM to 50 μM in 0.5% DMSO/assay media, or from 0.00318 to 10 μM in 0.5% DMSO/assay media.
The assay uses a Luciferase-encoding HCMV. Luciferase is expressed under the control of a late viral gene (pp28) promoter in the AD169 strain, so that expression of the reporter is dependent on viral DNA replication. Compounds that affect any stage from viral entry to DNA replication result in a change in luciferase levels.
Viral replication in the presence or absence of compounds was measured by luciferase activity according to the following procedure: Neo-natal normal human dermal fibroblast cells (NN-NHDF, from ATCC cat #201-010) were seeded at 9,000 cells/well in 96-well white solid bottom plate at 80 uL/well in assay media: 2% FBS, 4 mM GlutaMax® (Invitrogen cat #35050) in DMEM/high glucose/no glutamine/no phenol red media (Invitrogen cat #31053). After 2 hrs at 37° C., 10 uL of compound diluted in assay media or 5% DMSO (final 0.5% DMSO/well) was added and the plates returned to 37° C. One hour later, 10 uL of virus diluted in assay media was added at a final Multiplicity of infection (MOI) of 1. Plates were incubated at 37° C. for 72 hrs. At 72 hours post-infection (hpi), plates were equilibrated to room temperature. After 25 min, 100 uL Renilla-Glo® Luciferase Assay Reagent (Promega cat # E2750) was added to each well and incubated for 10 min. Plates were covered to protect from light. Luminescence was measured on the PHERAstar FS®.
The following controls were included in the data analysis: No virus, no compound (0.5% DMSO)=IC (maximal inhibitory control); Virus, no compound (0.5% DMSO)=NC (neutral control). Data were analyzed using an internal Novartis software (Helios). The means of the controls (NC, IC) were used to normalize the results to a % scale using the formula: % Control=100−(100*(Sample value−NC)/(IC−NC)).
For each compound, the software derived an EC50 using a 4-parameter logistical model.

SMILES: CS(=O)(=O)CCN1CCn2c(c(C#N)cc(C(=O)NCc3ccc(Cl)cc3)c2=O)C1=O [Example 125, N-(4-chlorobenzyl)-9-cyano-2-(2-(methylsulfonyl)ethyl)-1,6-dioxo-1,3,4,6-tetrahydro-2H-pyrido[1,2-a]pyrazine-7-carboxamide]
- IC50 [1]: 1.01 µM
- IC50 [2]: 0.566 µM
- EC50 [3]: 20.2 µM

SMILES: N#Cc1ccc(CNC(=O)c2ccc3n(c2=O)CCN(CC2(S(=O)(=O)C4(C(F)(F)F)CC4)CC2)C3=O)cc1F [Example 97-2]
- IC50 [1]: 0.0908 µM
- IC50 [2]: 0.0032 µM
- EC50 [3]: 0.189 µM

SMILES: N#Cc1ccc(CNC(=O)c2ccc3n(c2=O)CCN(CC2(S(=O)(=O)[C@H]4CC4(F)F)CC2)C3=O)cc1F (single isomer, unassigned) [Example 101-1]
- IC50 [1]: 0.0487 µM
- IC50 [2]: 0.001 µM
- EC50 [3]: 0.0555 µM

SMILES: N#Cc1ccc(CNC(=O)c2ccc3n(c2=O)CCN(CC2(S(=O)(=O)C4CCCC4)CC2)C3=O)cc1F [Example 21]
- IC50 [1]: 0.0354 µM
- IC50 [2]: 0.0008 µM
- EC50 [3]: 0.058 µM

SMILES: N#Cc1ccc(CNC(=O)c2ccc3n(c2=O)CCN(CC2(S(=O)(=O)C4CC4(F)F)CC2)C3=O)cc1F (stereo not drawn) [Example 98-2]
- IC50 [1]: 0.0576 µM
- IC50 [2]: 0.0012 µM
- EC50 [3]: 0.041 µM

SMILES: COC1(CN2CCn3c(ccc(C(=O)NCc4ccc(Cl)cc4)c3=O)C2=O)CC1 [Example 171, N-(4-chlorobenzyl)-2-((1-methoxycyclopropyl)methyl)-1,6-dioxo-1,3,4,6-tetrahydro-2H-pyrido[1,2-a]pyrazine-7-carboxamide]
- IC50 [1]: 2.8 µM
- IC50 [2]: 0.0729 µM
- EC50 [3]: 0.637 µM

SMILES: O=C(NCc1ccc(Cl)cc1)c1ccc2n(c1=O)CCN(CC1(S(=O)(=O)C3CNC3)CC1)C2=O [Example 19]
- IC50 [1]: 0.149 µM
- IC50 [2]: 0.0039 µM
- EC50 [3]: 0.538 µM

SMILES: C[S+]([O-])C1(CN2CCn3c(ccc(C(=O)NCc4ccc(C#N)cc4)c3=O)C2=O)CC1 (stereo not drawn) [Example 68-1, N-(4-cyanobenzyl)-2-((1-(methylsulfinyl)cyclopropyl)methyl)-1,6-dioxo-2,3,4,6-tetrahydro-1H-pyrido[1,2-a]pyrazine-7-carboxamide]
- IC50 [1]: 3.8 µM
- IC50 [2]: 0.146 µM
- EC50 [3]: 3.17 µM

SMILES: N#Cc1ccc(CNC(=O)c2ccc3n(c2=O)CCN(CC2(N4CCOC4=O)CC2)C3=O)cc1 [Example 89-2]
- IC50 [1]: 2.52 µM
- IC50 [2]: 0.174 µM
- EC50 [3]: 3.33 µM

SMILES: N#Cc1ccc(CNC(=O)c2ccc3n(c2=O)CCN(CC2(S(=O)(=O)CC4CC4)CC2)C3=O)cc1F [Example 107-3]
- IC50 [1]: 0.0726 µM
- IC50 [2]: 0.0022 µM
- EC50 [3]: 0.174 µM

SMILES: C[S@+]([O-])C1(CN2CCn3c(ccc(C(=O)NCc4ccc(Cl)cc4)c3=O)C2=O)CC1 (single isomer, unassigned) [Example 67-3, N-(4-chlorobenzyl)-2-((1-(methylsulfinyl)cyclopropyl)methyl)-1,6-dioxo-2,3,4,6-tetrahydro-1H-pyrido[1,2-a]pyrazine-7-carboxamide]
- IC50 [1]: 13.1 µM
- IC50 [2]: 0.292 µM
- EC50 [3]: 7.25 µM

SMILES: CS(=O)(=O)N1CCC[C@H]1CN1CCn2c(ccc(C(=O)NCc3ccc(Cl)cc3)c2=O)C1=O [Example 63-1]
- IC50 [1]: 23.4 µM
- IC50 [2]: 1.4 µM
- EC50 [3]: 42.7 µM

SMILES: CN(C1(CN2CCn3c(c(F)cc(C(=O)NCc4ccc(Cl)cc4)c3=O)C2=O)CC1)S(C)(=O)=O [Example 166]
- IC50 [1]: 7.7 µM
- IC50 [2]: 0.173 µM
- EC50 [3]: 10 µM

SMILES: CCc1cc(C(=O)NCc2ccc(Cl)cc2)c(=O)n2c1C(=O)N(CC1(S(C)(=O)=O)CC1)CC2 [Example 136]
- IC50 [1]: 0.137 µM
- IC50 [2]: 0.0025 µM
- EC50 [3]: 0.0867 µM

SMILES: N#Cc1ccc(CNC(=O)c2ccc3n(c2=O)CCN(CC2(S(=O)(=O)CC4(C(F)(F)F)CC4)CC2)C3=O)cc1 [Example 104-2]
- IC50 [1]: 0.301 µM
- IC50 [2]: 0.0243 µM
- EC50 [3]: 1.82 µM

SMILES: N#CC1(CS(=O)(=O)C2(CN3CCn4c(ccc(C(=O)NCc5ccc(Cl)cc5)c4=O)C3=O)CC2)CC1 [Example 110, N-(4-chlorobenzyl)-2-((1-(((1-cyanocyclopropyl)methyl)sulfonyl)cyclopropyl)methyl)-1,6-dioxo-1,3,4,6-tetrahydro-2H-pyrido pyrazine-7-carboxamide]
- IC50 [1]: 0.0335 µM
- IC50 [2]: 0.0019 µM
- EC50 [3]: 0.0817 µM

SMILES: Cc1cc(C(=O)NCc2ccc(Cl)cc2)c(=O)n2c1C(=O)N(CC1(S(=O)(=O)C3CC3)CC1)CC2 [Example 93-2]
- IC50 [1]: 0.0286 µM
- IC50 [2]: 0.0008 µM
- EC50 [3]: 0.0153 µM

SMILES: CCS(=O)(=O)C1(CN2CCn3c(ccc(C(=O)NCc4ccc(Cl)cc4)c3=O)C2=O)CC1 [Example 36]
- IC50 [1]: 0.0423 µM
- IC50 [2]: 0.0007 µM
- EC50 [3]: 0.0249 µM

SMILES: CC(C)(CO)S(=O)(=O)C1(CN2CCn3c(ccc(C(=O)NCc4ccc(Cl)nc4)c3=O)C2=O)CC1 [Example 182]
- IC50 [1]: 0.0386 µM
- IC50 [2]: 0.0027 µM
- EC50 [3]: 0.0483 µM

SMILES: CCS(=O)(=O)C1(CN2CCn3c(ccc(C(=O)NCc4ccc(C#N)c(F)c4)c3=O)C2=O)CC1 [Example 34]
- IC50 [1]: 0.0695 µM
- IC50 [2]: 0.0016 µM
- EC50 [3]: 0.0412 µM

SMILES: N#Cc1ccc(CNC(=O)c2ccc3n(c2=O)CCN(CC2(S(=O)(=O)C4CC4(F)F)CC2)C3=O)cc1Cl (stereo not drawn) [Example 98-3]
- IC50 [1]: 0.2 µM
- IC50 [2]: 0.0017 µM
- EC50 [3]: 0.102 µM

SMILES: N#Cc1ccc(CNC(=O)c2ccc3n(c2=O)CCN(CC2(S(=O)(=O)[C@@H]4CC4(F)F)CC2)C3=O)cc1F (single isomer, unassigned) [Example 101-2]
- IC50 [1]: 0.0329 µM
- IC50 [2]: 0.0006 µM
- EC50 [3]: 0.0296 µM

SMILES: CN(CCN1CCn2c(ccc(C(=O)NCc3ccc(Cl)cc3)c2=O)C1=O)S(C)(=O)=O [Example 58, N-(4-chlorobenzyl)-2-(2-(N-methylmethylsulfonamido)ethyl)-1,6-dioxo-2,3,4,6-tetrahydro-1H-pyrido[1,2-a]pyrazine-7-carboxamide]
- IC50 [1]: 0.846 µM
- IC50 [2]: 0.0756 µM
- EC50 [3]: 0.883 µM

SMILES: C[C@H](NC(=O)c1ccc2n(c1=O)CCN(CC1(S(C)(=O)=O)CC1)C2=O)c1ccc(Cl)cc1 [Example 44]
- IC50 [1]: 62.9 µM
- IC50 [2]: 0.763 µM
- EC50 [3]: 10 µM

SMILES: CCS(=O)(=O)N(C)CCN1CCn2c(ccc(C(=O)NCc3ccc(Cl)cc3)c2=O)C1=O [Example 59]
- IC50 [1]: 1.48 µM
- IC50 [2]: 0.138 µM
- EC50 [3]: 1.64 µM
